{"source": "ChEMBL document CHEMBL6092192", "about": "(J Med Chem, 2024)", "key": {"KB-C2 [1]": {"system": "KB-C2", "assay": "Cytotoxicity against human KB-C2 cells assessed as survival rate at 2 uM measured after 72 hrs by MTT assay relative to control", "format": "functional", "conditions": "read-out: Survival"}, "[2]": {"assay": "Toxicity in BALB/c nude mouse xenografted with […] CT26/TAXOL cells assessed as effect on kidney at 100 mg/kg/day, IG measured after 14 days by H and E staining based analysis", "format": "organism-based", "conditions": "in vivo, po, 336 h, time 14 day"}, "[3]": {"assay": "MRT (0 to t) in 12 hrs fasted Sprague-Dawley rat at 10 mg/kg, po measured upto 720 mins by HPLC-MS/MS analysis", "format": "ADME, organism-based", "conditions": "in vivo"}, "KB-C2 [4]": {"system": "KB-C2", "assay": "Reversal of paclitaxel resistance in human KB-C2 cells assessed as reversal fold by measuring ratio of paclitaxel IC50 to paclitaxel IC50 in presence of test compound at 4 uM incubated for 72 hrs by MTT assay", "format": "functional"}, "[5]": {"assay": "Toxicity in Sprague-Dawley rat assessed as maximum tolerated dose measured for 14 days administered as single oral dose", "conditions": "in vivo, time 14 day"}, "[6]": {"assay": "Toxicity in BALB/c nude mouse xenografted with […] CT26/TAXOL cells assessed as effect on liver at 100 mg/kg/day, IG in presence of paclitaxel measured after 14 days by H and E staining based analysis", "format": "organism-based", "conditions": "in vivo, po, 336 h, time 14 day"}, "[7]": {"assay": "Oral bioavailability in 12 hrs fasted Sprague-Dawley rat at 10 mg/kg measured upto 720 mins by HPLC-MS/MS analysis", "format": "ADME, organism-based", "conditions": "in vivo"}, "[8]": {"assay": "Toxicity in BALB/c nude mouse xenografted with […] CT26/TAXOL cells assessed as effect on lung at 100 mg/kg/day, IG in presence of paclitaxel/anti-PD-1 measured after 14 days by H and E staining based analysis", "format": "organism-based", "conditions": "in vivo, po, 336 h, time 14 day"}, "[9]": {"assay": "AUC (0 to t) in 12 hrs fasted Sprague-Dawley rat at 10 mg/kg, po measured upto 720 mins by HPLC-MS/MS analysis", "format": "ADME, organism-based", "conditions": "in vivo"}, "[10]": {"assay": "Toxicity in BALB/c nude mouse xenografted with […] CT26/TAXOL cells assessed as effect on spleen at 100 mg/kg/day, IG in presence of paclitaxel/anti-PD-1 measured after 14 days by H and E staining based analysis", "format": "organism-based", "conditions": "in vivo, po, 336 h, time 14 day"}, "[11]": {"target": "T1, ATP-dependent translocase ABCB1 (Homo sapiens, UniProt P08183)", "T1 sequence (P08183 whole entry)": "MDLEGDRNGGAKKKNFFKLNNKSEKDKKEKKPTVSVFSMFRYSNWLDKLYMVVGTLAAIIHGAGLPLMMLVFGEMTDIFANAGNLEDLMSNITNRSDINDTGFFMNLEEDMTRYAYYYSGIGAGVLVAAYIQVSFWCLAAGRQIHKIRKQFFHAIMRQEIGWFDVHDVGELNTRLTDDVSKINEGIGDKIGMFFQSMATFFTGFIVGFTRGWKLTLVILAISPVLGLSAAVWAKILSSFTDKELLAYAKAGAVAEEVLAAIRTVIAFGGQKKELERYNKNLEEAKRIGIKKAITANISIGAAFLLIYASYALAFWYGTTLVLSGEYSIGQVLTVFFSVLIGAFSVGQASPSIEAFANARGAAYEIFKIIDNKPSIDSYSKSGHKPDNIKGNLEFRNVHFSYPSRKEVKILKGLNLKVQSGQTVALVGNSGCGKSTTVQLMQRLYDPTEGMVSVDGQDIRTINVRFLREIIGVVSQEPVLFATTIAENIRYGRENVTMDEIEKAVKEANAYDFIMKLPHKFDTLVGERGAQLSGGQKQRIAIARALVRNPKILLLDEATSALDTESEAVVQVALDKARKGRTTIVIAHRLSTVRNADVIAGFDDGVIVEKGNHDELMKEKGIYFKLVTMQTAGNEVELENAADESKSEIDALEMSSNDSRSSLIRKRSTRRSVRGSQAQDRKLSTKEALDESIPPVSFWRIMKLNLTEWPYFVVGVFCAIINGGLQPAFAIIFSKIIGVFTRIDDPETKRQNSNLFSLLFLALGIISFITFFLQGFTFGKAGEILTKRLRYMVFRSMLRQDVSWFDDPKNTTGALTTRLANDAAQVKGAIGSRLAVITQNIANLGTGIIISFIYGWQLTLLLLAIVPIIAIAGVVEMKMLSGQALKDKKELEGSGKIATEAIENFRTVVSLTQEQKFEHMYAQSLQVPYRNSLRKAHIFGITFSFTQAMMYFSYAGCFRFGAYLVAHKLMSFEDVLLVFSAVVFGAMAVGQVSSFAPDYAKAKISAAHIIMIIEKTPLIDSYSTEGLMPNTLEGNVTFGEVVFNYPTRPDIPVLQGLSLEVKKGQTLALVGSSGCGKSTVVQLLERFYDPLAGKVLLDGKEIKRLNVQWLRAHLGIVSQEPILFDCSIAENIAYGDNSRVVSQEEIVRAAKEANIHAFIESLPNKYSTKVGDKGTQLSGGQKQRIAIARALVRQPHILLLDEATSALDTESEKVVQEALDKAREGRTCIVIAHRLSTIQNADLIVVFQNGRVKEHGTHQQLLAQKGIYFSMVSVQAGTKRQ", "assay": "Activation of ABCB1 ATPase activity (unknown origin) infected in insect cells by measuring fold change at upto 40 uM incubated for 20 mins in presence of Mg-ATP by spectrophotometric analysis", "conditions": "Insect cell, read-out: FC"}, "[12]": {"assay": "Toxicity in BALB/c nude mouse xenografted with […] CT26/TAXOL cells assessed as change in body weight at 100 mg/kg/day, IG measured upto 14 days", "format": "organism-based", "conditions": "in vivo, po, 336 h, time < 14 day"}, "KB-C2 [13]": {"system": "KB-C2", "assay": "Cytotoxicity against human KB-C2 cells assessed as survival rate at 5 uM measured after 72 hrs by MTT assay relative to control", "format": "functional", "conditions": "read-out: Survival"}, "KB 3-1 [14]": {"system": "KB 3-1", "assay": "Reversal of paclitaxel resistance in human KB 3-1 cells assessed as reversal fold by measuring ratio of paclitaxel IC50 to paclitaxel IC50 in presence of test compound at 2 uM incubated for 72 hrs by MTT assay", "format": "functional"}, "KB 3-1 [15]": {"system": "KB 3-1", "assay": "Cytotoxicity against human KB 3-1 cells assessed as survival rate at 2 uM measured after 72 hrs by MTT assay relative to control", "format": "functional", "conditions": "read-out: Survival"}, "CD8-positive T cell [16]": {"system": "CD8-positive T cell", "assay": "Activation of immune response in human CD8-positive T cell assessed as increase in TNF-alpha level at 4 uM by ELISA method", "format": "functional, cell-based"}, "[17]": {"assay": "Half life in 12 hrs fasted Sprague-Dawley rat at 1 mg/kg, iv measured upto 720 mins by HPLC-MS/MS analysis", "format": "ADME, organism-based", "conditions": "in vivo"}, "CT26/TAXOL": {"system": "CT26/TAXOL", "assay": "Antitumor T-cell immune response in […] cells xenografted in BALB/c nude mouse model assessed as reduction in tumor volume at 100 mg/kg/day, IG in presence of anti-PD-1/paclitaxel measured after 14 days", "format": "functional, organism-based", "conditions": "time 14.0 day"}, "SW620/AD300 [18]": {"system": "SW620/AD300", "assay": "Reversal of paclitaxel resistance in human SW620/AD300 cells assessed as reversal fold by measuring ratio of paclitaxel IC50 to paclitaxel IC50 in presence of test compound at 4 uM incubated for 72 hrs by MTT assay", "format": "functional"}, "[19]": {"target": "T1, ATP-dependent translocase ABCB1", "assay": "Inhibition of ABCB1 in human SW620/AD300 cells assessed as increase in [3H]-PTX accumulation at 2 to 4 uM incubated for 4 hrs by liquid scintillation analysis", "format": "cell-based", "conditions": "sw620/ad300, 4 h, dose 2-4 µM"}, "SW620/AD300 [20]": {"system": "SW620/AD300", "assay": "Reversal of paclitaxel resistance in human SW620/AD300 cells assessed as reversal fold by measuring ratio of paclitaxel IC50 to paclitaxel IC50 in presence of test compound incubated for 72 hrs by MTT assay", "format": "functional"}, "SW-620 [21]": {"system": "SW-620", "assay": "Reversal of paclitaxel resistance in human SW620 cells assessed as reversal fold by measuring ratio of paclitaxel IC50 to paclitaxel IC50 in presence of test compound at 2 uM incubated for 72 hrs by MTT assay", "format": "functional"}, "SW620/AD300 [22]": {"system": "SW620/AD300", "assay": "Antitumor activity against human SW620/AD300 cells xenografted in male BALB/c nude mouse model assessed as nuclear pyknosis at 100 mg/kg/day, IG in presence of paclitaxel by H and E staining based analysis", "format": "functional, organism-based"}, "KB 3-1 [23]": {"system": "KB 3-1", "assay": "Reversal of paclitaxel resistance in human KB 3-1 cells assessed as reversal fold by measuring ratio of paclitaxel IC50 to paclitaxel IC50 in presence of test compound at 4 uM incubated for 72 hrs by MTT assay", "format": "functional"}, "SW-620 [24]": {"system": "SW-620", "assay": "Cytotoxicity against human SW620 cells assessed as survival rate at 4 uM measured after 72 hrs by MTT assay relative to control", "format": "functional", "conditions": "read-out: Survival"}, "SW-620 [25]": {"system": "SW-620", "assay": "Reversal of paclitaxel resistance in human SW620 cells assessed as reversal fold by measuring ratio of paclitaxel IC50 to paclitaxel IC50 in presence of test compound at 4 uM incubated for 72 hrs by MTT assay", "format": "functional"}, "SW-620 [26]": {"system": "SW-620", "assay": "Cytotoxicity against human SW620 cells assessed as survival rate at 2 uM measured after 72 hrs by MTT assay relative to control", "format": "functional", "conditions": "read-out: Survival"}, "[27]": {"assay": "Tmax in 12 hrs fasted Sprague-Dawley rat at 1 mg/kg, iv measured upto 720 mins by HPLC-MS/MS analysis", "format": "ADME, organism-based", "conditions": "in vivo"}, "CD8-positive T cell [28]": {"system": "CD8-positive T cell", "assay": "Activation of immune response in human CD8-positive T cell assessed as increase in perforin level at 4 uM by ELISA method", "format": "functional, cell-based"}, "[29]": {"assay": "Toxicity in BALB/c nude mouse assessed as change in body weight at 100 mg/kg/day, IG measured after 21 days in presence of paclitaxel", "format": "organism-based", "conditions": "in vivo, po, 504 h, time 21 day"}, "[30]": {"assay": "Toxicity in BALB/c nude mouse xenografted with […] CT26/TAXOL cells assessed as effect on brain at 100 mg/kg/day, IG in presence of paclitaxel measured after 14 days by H and E staining based analysis", "format": "organism-based", "conditions": "in vivo, po, 336 h, time 14 day"}, "[31]": {"assay": "Reversal of paclitaxel resistance in HEK293 cells transfected with pcDNA3.1 assessed as reversal fold by measuring ratio of paclitaxel IC50 to paclitaxel IC50 in presence of test compound at 2 uM incubated for 72 hrs by MTT assay", "format": "functional, Homo sapiens"}}, "note": "Activity calls are given as the source filed them. The calls are words filed in the database; no cut-off is given here."}
{"smiles": "O=c1c2c([nH]c3nc(SCc4nc5ccccc5s4)nn13)CCC2", "values": [{"measurement": "viability at 2 µM", "setting": "KB-C2 [1]", "value": 96.2, "unit": "%"}, {"measurement": "Activity", "setting": "[2]", "value": "Non-toxic"}, {"measurement": "MRT last at 12 h", "setting": "[3]", "value": 6.87, "unit": "h"}, {"measurement": "Ratio IC50", "setting": "KB-C2 [4]", "value": 443.74}, {"measurement": "MTD at 336 h", "setting": "[5]", "value": 1000, "unit": "mg/kg"}, {"measurement": "Activity", "setting": "[6]", "value": "Non-toxic"}, {"measurement": "bioavailability", "setting": "[7]", "value": 63.9, "unit": "%"}, {"measurement": "Activity", "setting": "[8]", "value": "Non-toxic"}, {"measurement": "AUC(0-t) at 12 h", "setting": "[9]", "value": 5740, "unit": "ng·h/mL"}, {"measurement": "Activity", "setting": "[10]", "value": "Non-toxic"}, {"measurement": "fold induction at up to 40 µM", "setting": "[11]", "value": 2.5}, {"measurement": "Activity", "setting": "[12]", "value": "Non-toxic"}, {"measurement": "viability at 5 µM", "setting": "KB-C2 [13]", "value": 94.4, "unit": "%"}, {"measurement": "Ratio IC50", "setting": "KB 3-1 [14]", "value": 1.05}, {"measurement": "viability at 2 µM", "setting": "KB 3-1 [15]", "value": 99.6, "unit": "%"}, {"measurement": "Activity", "setting": "CD8-positive T cell [16]", "value": "Active"}, {"measurement": "half-life", "setting": "[17]", "value": 322, "unit": "min"}, {"measurement": "Activity", "setting": "CT26/TAXOL", "value": "Active"}, {"measurement": "Ratio IC50", "setting": "SW620/AD300 [18]", "value": 730.33}, {"measurement": "inhibition (INH)", "setting": "[19]", "value": "Active"}, {"measurement": "Ratio IC50", "setting": "SW620/AD300 [20]", "value": 864}, {"measurement": "Ratio IC50", "setting": "SW-620 [21]", "value": 1.01}, {"measurement": "Activity", "setting": "SW620/AD300 [22]", "value": "Active"}, {"measurement": "Ratio IC50", "setting": "KB 3-1 [23]", "value": 1.39}, {"measurement": "viability at 4 µM", "setting": "SW-620 [24]", "value": 92.4, "unit": "%"}, {"measurement": "Ratio IC50", "setting": "SW-620 [25]", "value": 1.06}, {"measurement": "viability at 2 µM", "setting": "SW-620 [26]", "value": 95.9, "unit": "%"}, {"measurement": "Tmax", "setting": "[27]", "value": 4.98, "unit": "min"}, {"measurement": "Activity", "setting": "CD8-positive T cell [28]", "value": "Active"}, {"measurement": "Activity", "setting": "[29]", "value": "Non-toxic"}, {"measurement": "Activity", "setting": "[30]", "value": "Non-toxic"}, {"measurement": "Ratio IC50", "setting": "[31]", "value": 10.9}]}
